From ChEMBL document CHEMBL1201862, “PubChem BioAssay data set” (2004)
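Results reflect a 48-hour exposure of cells in 96-well plates to compound at five concentrations. GI50 marks 50% less growth.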 The source made the active and inactive calls. Cut-off read from the data, not from the text of the source: active = GI50 up to about 1.1 µM and inactive = higher.

Key:
Assay in all cases: NCI anticancer screen, dose series, 48 h
U-251 = system: U-251
SF-539 = system: SF-539
SF-295 = system: SF-295
SK-MEL-28 = system: SK-MEL-28
NCI-H226 = system: NCI-H226
MOLT-4 = system: MOLT-4
OVCAR-3 = system: OVCAR-3
IGROV-1 = system: IGROV-1
RPMI-8226 = system: RPMI-8226
OVCAR-4 = system: OVCAR-4
UACC-257 = system: UACC-257
SW-620 = system: SW-620
SN12C = system: SN12C
M14 = system: M14
NCI-H522 = system: NCI-H522
A498 = system: A498

Measured: GI50

Nc1c2ccccc2nc2nccnc12
inactive: U-251 > 100 µM | SF-539 > 100 µM | SF-295 > 100 µM | SK-MEL-28 > 100 µM | NCI-H226 > 100 µM | MOLT-4 > 100 µM | OVCAR-3 > 100 µM | IGROV-1 60.4 µM | RPMI-8226 > 100 µM | OVCAR-4 > 100 µM | UACC-257 > 100 µM | SW-620 > 100 µM | SN12C > 100 µM | M14 > 100 µM | NCI-H522 > 100 µM | A498 > 100 µM

Clc1cc(Cl)c2c(Cl)cc(Cl)c3c2c1N=S=N3
inactive: U-251 > 100 µM | SF-539 > 100 µM | SF-295 > 100 µM | SK-MEL-28 > 100 µM | NCI-H226 > 100 µM | MOLT-4 2.86 µM | OVCAR-3 > 100 µM | IGROV-1 > 100 µM | RPMI-8226 > 100 µM | OVCAR-4 > 100 µM | UACC-257 > 100 µM | SW-620 > 100 µM | M14 > 100 µM | NCI-H522 > 100 µM | A498 6.68 µM

Cc1cc2c(cc1C)[n+]([O-])c(C(=O)C/C(=N/NC(=O)c1ccccc1O)C(=O)Nc1ccccc1C(C)C)c(C)[n+]2[O-]
inactive: U-251 > 100 µM | SF-539 > 100 µM | SF-295 > 100 µM | SK-MEL-28 > 100 µM | NCI-H226 > 100 µM | MOLT-4 21.9 µM | OVCAR-3 37.2 µM | IGROV-1 > 100 µM | OVCAR-4 54.1 µM | UACC-257 > 100 µM | SW-620 97.1 µM | SN12C > 100 µM | M14 > 100 µM | NCI-H522 42.6 µM | A498 > 100 µM

Cc1ccccc1C1OC(=O)c2ccc3ccccc3c21 (stereo not given)
inactive: U-251 3.57 µM | SF-539 3.27 µM | SF-295 7.35 µM | SK-MEL-28 3.43 µM | NCI-H226 4.75 µM | MOLT-4 2.23 µM | OVCAR-3 3.65 µM | IGROV-1 5 µM | RPMI-8226 1.61 µM | OVCAR-4 9.51 µM | UACC-257 4.62 µM | SW-620 4.52 µM | SN12C 5.47 µM | M14 2.97 µM | NCI-H522 1.82 µM | A498 2.36 µM

CSc1ccc(N2C(=O)C3c4[nH]c5ccccc5c4C4CCC(C(C)(C)C)CC4C3C2=O)cc1 (stereo not given)
inactive: U-251 16.4 µM | SF-539 18.3 µM | SF-295 14.3 µM | SK-MEL-28 13.8 µM | NCI-H226 19.1 µM | MOLT-4 15.4 µM | OVCAR-3 41.2 µM | IGROV-1 13.8 µM | RPMI-8226 28.4 µM | OVCAR-4 10.3 µM | UACC-257 46.8 µM | SW-620 21.3 µM | SN12C 16.1 µM | M14 27.5 µM | NCI-H522 16.2 µM | A498 17.8 µM

CC1=C(C)CC2(CCCCC2=O)[S+]([O-])C1 (stereo not given)
inactive: U-251 > 100 µM | SF-539 > 100 µM | SF-295 > 100 µM | SK-MEL-28 > 100 µM | NCI-H226 > 100 µM | MOLT-4 > 100 µM | OVCAR-3 > 100 µM | IGROV-1 > 100 µM | RPMI-8226 > 100 µM | OVCAR-4 > 100 µM | UACC-257 > 100 µM | SW-620 > 100 µM | SN12C > 100 µM | M14 > 100 µM | A498 > 100 µM

COc1cc(/C=C(\C#N)c2ccccc2)cc(OC)c1
inactive: U-251 28.3 µM | SF-539 41.1 µM | SF-295 21.9 µM | SK-MEL-28 26.1 µM | NCI-H226 25.8 µM | MOLT-4 16.4 µM | OVCAR-3 > 100 µM | IGROV-1 71 µM | RPMI-8226 35.6 µM | OVCAR-4 > 100 µM | UACC-257 8.59 µM | SW-620 38.9 µM | SN12C 74.6 µM | M14 33.8 µM | NCI-H522 32.4 µM

C[Si](C)(C)/C(Br)=C\CCN1C(=O)CCC1O (stereo not given)
inactive: U-251 > 100 µM | SF-539 > 100 µM | SF-295 > 100 µM | SK-MEL-28 > 100 µM | NCI-H226 > 100 µM | MOLT-4 > 100 µM | OVCAR-3 > 100 µM | IGROV-1 > 100 µM | RPMI-8226 > 100 µM | OVCAR-4 > 100 µM | UACC-257 > 100 µM | SW-620 > 100 µM | SN12C > 100 µM | M14 > 100 µM | NCI-H522 71.9 µM | A498 > 100 µM

CCOC(=O)N1C2C=C(C)C(C3C(C)C(=O)N31)N(C(=O)c1ccccc1)O2 (stereo not given)
inactive: U-251 > 100 µM | SF-539 > 100 µM | SF-295 > 100 µM | SK-MEL-28 > 100 µM | NCI-H226 > 100 µM | MOLT-4 > 100 µM | OVCAR-3 > 100 µM | IGROV-1 > 100 µM | RPMI-8226 > 100 µM | OVCAR-4 > 100 µM | UACC-257 > 100 µM | SW-620 > 100 µM | SN12C > 100 µM | M14 > 100 µM | A498 > 100 µM

C/C(CC(=O)Nc1ccc(NC(=O)/C(C)=N/NS(=O)(=O)c2ccc(C)cc2)cc1)=N\NS(=O)(=O)c1ccc(C)cc1
inactive: U-251 > 100 µM | SF-539 > 100 µM | SF-295 > 100 µM | SK-MEL-28 > 100 µM | NCI-H226 > 100 µM | MOLT-4 > 100 µM | OVCAR-3 > 100 µM | IGROV-1 > 100 µM | RPMI-8226 > 100 µM | UACC-257 > 100 µM | SW-620 > 100 µM | SN12C > 100 µM | M14 > 100 µM | A498 > 100 µM

Brc1cc2c(cc1Br)CN(c1ccccc1)C2
inactive: U-251 > 100 µM | SF-539 > 100 µM | SF-295 > 100 µM | SK-MEL-28 > 100 µM | NCI-H226 > 100 µM | MOLT-4 > 100 µM | OVCAR-3 > 100 µM | IGROV-1 > 100 µM | RPMI-8226 > 100 µM | OVCAR-4 > 100 µM | UACC-257 > 100 µM | SW-620 > 100 µM | SN12C > 100 µM | M14 > 100 µM | A498 > 100 µM

CCc1cc2c(O)c(c1)Cc1cc(CC)cc(c1O)Cc1cc(CC)cc(c1O)Cc1cc(CC)cc(c1O)Cc1cc(CC)cc(c1O)Cc1cc(CC)cc(c1O)Cc1cc(CC)cc(c1O)C2
inactive: U-251 62.8 µM | SF-539 > 100 µM | SF-295 > 100 µM | SK-MEL-28 > 100 µM | MOLT-4 78.2 µM | OVCAR-3 > 100 µM | IGROV-1 > 100 µM | RPMI-8226 > 100 µM | OVCAR-4 > 100 µM | UACC-257 > 100 µM | SW-620 > 100 µM | SN12C > 100 µM | M14 > 100 µM | NCI-H522 > 100 µM

NC(CNc1ccc(O)cc1)C(=O)O (stereo not given)
inactive: U-251 > 100 µM | SF-295 > 100 µM | SK-MEL-28 > 100 µM | NCI-H226 > 100 µM | MOLT-4 > 100 µM | OVCAR-3 > 100 µM | RPMI-8226 > 100 µM | OVCAR-4 17.4 µM | UACC-257 > 100 µM | SW-620 > 100 µM | SN12C > 100 µM | M14 80.7 µM | NCI-H522 > 100 µM | A498 > 100 µM

N=C(N)NS(=O)(=O)c1ccc(NC(=O)c2cccc3c(Nc4ccc(S(N)(=O)=O)cc4)c4ccccc4nc23)cc1
inactive: U-251 > 100 µM | SF-539 > 100 µM | SF-295 > 100 µM | SK-MEL-28 > 100 µM | MOLT-4 > 100 µM | OVCAR-3 > 100 µM | IGROV-1 > 100 µM | RPMI-8226 > 100 µM | OVCAR-4 > 100 µM | UACC-257 > 100 µM | SW-620 > 100 µM | SN12C > 100 µM | M14 > 100 µM | NCI-H522 > 100 µM | A498 > 100 µM

CCc1nc2c([nH]1)C(=O)c1ccccc1C2=O
inactive: U-251 55.5 µM | SF-539 48.9 µM | SF-295 45.7 µM | SK-MEL-28 > 100 µM | NCI-H226 34 µM | MOLT-4 46.3 µM | OVCAR-3 23 µM | OVCAR-4 58.7 µM | UACC-257 26.5 µM | SW-620 43.4 µM | SN12C 37.2 µM | M14 46.9 µM | NCI-H522 33.5 µM | A498 > 100 µM

Cc1ccc(Nc2cccc3c2C(=O)c2cccc(Nc4ccc(C)cc4S(=O)(=O)O)c2C3=O)c(S(=O)(=O)O)c1
inactive: U-251 > 100 µM | SF-539 > 100 µM | SK-MEL-28 > 100 µM | NCI-H226 > 100 µM | MOLT-4 > 100 µM | OVCAR-3 > 100 µM | IGROV-1 > 100 µM | RPMI-8226 > 100 µM | OVCAR-4 > 100 µM | UACC-257 > 100 µM | SW-620 > 100 µM | SN12C > 100 µM | M14 > 100 µM | NCI-H522 > 100 µM | A498 > 100 µM

c1ccc(C2OC3(CCC[C@H]4C[C@H]43)O[C@H]2c2ccccc2)cc1 (stereo not given in full)
inactive: U-251 41.1 µM | SF-539 > 100 µM | SF-295 46.3 µM | NCI-H226 26.2 µM | MOLT-4 25.8 µM | OVCAR-3 37.4 µM | IGROV-1 > 100 µM | RPMI-8226 40.3 µM | OVCAR-4 53.2 µM | UACC-257 30.9 µM | SW-620 31.2 µM | SN12C 34.4 µM | M14 43.9 µM | NCI-H522 22.7 µM | A498 > 100 µM

CC1C=CC(O)[C@]2(CO)CC3(CCC12)OCCO3 (stereo not given in full)
inactive: U-251 > 100 µM | SF-539 > 100 µM | SF-295 > 100 µM | SK-MEL-28 > 100 µM | NCI-H226 > 100 µM | MOLT-4 > 100 µM | OVCAR-3 > 100 µM | IGROV-1 > 100 µM | OVCAR-4 > 100 µM | UACC-257 > 100 µM | SW-620 > 100 µM | SN12C > 100 µM | M14 > 100 µM | NCI-H522 > 100 µM | A498 > 100 µM
